This series deals with male Swiss CD-1 mice. The experiment in a line: Core body temperature. Format: in vivo. Conditions: 10 mg/kg i.p., 22 ± 1 °C and 28 ± 1 °C, compared with MDMA and SDMA. As to the method: Male Swiss CD-1 mice (Janvier, Le Genest, France), weighing 30–35 g and aged 6–8 weeks, were used for HLA, thigmotaxis, CPP, and core body temperature experiments. Animals were housed under temperature-controlled conditions (22 ± 1 °C) with a 12 h light/dark cycle and had free access to food and water (standard laboratory diet, Panlab SL, Barcelona, Spain). Doses for HLA, thigmotaxis, CPP, and core body temperature experiments were calculated based on the free base form of each compound. For HTR experiments, male C57BL/6J mice (6–8 weeks old) were obtained from Jackson Laboratories (Bar Harbor, ME, USA) and housed up to four per cage with a reversed light-cycle (lights on at 1900 h, off at 0700 h). Food and water were provided ad libitum, except during behavioral testing. Testing was conducted between 1000 and 1830 h. Doses for HTR experiments were calculated based on the respective salt forms of the compounds.
Changes in body temperature were measured by means of subcutaneously implanted temperature transponders (IPTT-300; Bio Medic Data Systems, Inc., DE, USA). Seven mice were used per group. […] Subsequently, core body temperature measures were taken for 1 h, every 10 min before administration, using a DAS-8007 Wireless Reader System (Bio Medic Data Systems, Inc.), to establish a baseline. […]

For the compound `CC(N)Cc1ccc2c(c1)SCO2` (stereo not shown) [SDA, 1-(1,3-benzoxathiol-5-yl)propan-2-amine], the “core body temperature changes” value is “significantly increased and prolonged core temperature changes”.

Values taken from paper PMC12715756 (ACS Chemical Neuroscience, 2025).
